Measured values from ChEMBL document CHEMBL6092156, “Design and development of a series of 4-(piperazin-1-yl)pyrimidines as irreversible menin inhibitors” (Eur J Med Chem, 2024).
pIC50: −log10 of the molar value. Converted amounts (≈) assume the structure as drawn. Blank lines part the entries; values can stand above or below the molecule they belong to. The source made the active and inactive calls. The rule behind the calls is not given here.

Tests used:
MV4-11 [1] = assay: Antiproliferative activity against human menin-sensitive MV4-11 cells assessed as inhibition of cell growth incubated for 7 days by MTS assay; assay type: functional, cell-based; conditions: MV4-11, 168 h
REH [2] = assay: Antiproliferative activity against human menin-insensitive REH cells assessed as inhibition of cell growth incubated for 7 days by MTS assay; assay type: functional, cell-based; conditions: 168 h
[3] = molecular target: Menin/Histone-lysine N-methyltransferase MLL (Homo sapiens, UniProt O00255); assay: Inhibition of menin (unknown origin)/N-terminal FITC-labeled MLL1 peptide (unknown origin) interaction incubated for 30 min by fluorescence polarization assay; assay type: protein assay
[4] = Suppression of MEN1 gene transcription in human MV4-11 cells assessed as protein synthesis by measuring fold change at 50 ug/ml incubated for 12 hrs relative to control; assay type: functional; conditions: dose 50 µg/ml
[5] = Suppression of MEN1 gene transcription in human MV4-11 cells assessed as protein synthesis by measuring fold change at 50 ug/ml incubated for 36 hrs relative to control; assay type: functional; conditions: dose 50 µg/ml
[6] = Suppression of MEN1 gene transcription in human MV4-11 cells assessed as protein synthesis by measuring fold change at 50 ug/ml incubated for 48 hrs relative to control; assay type: functional; conditions: dose 50 µg/ml
[7] = Suppression of MEN1 gene transcription in human MV4-11 cells assessed as protein synthesis by measuring fold change at 50 ug/ml incubated for 24 hrs relative to control; assay type: functional; conditions: dose 50 µg/ml
MV4-11 [8] = assay: Antiproliferative activity against human MV4-11 cells assessed as reduction in cell viability incubated for 7 days and measured after compound washout; assay type: functional, cell-based; conditions: time 7.0 day
HL-60 = assay: Antiproliferative activity against human HL-60 cells assessed as cell growth inhibition incubated for 7 days by MTS assay; assay type: functional, cell-based; conditions: HL-60, 168 h
[9] = Cmax in female ICR mouse at 5 mg/kg, ip by LC-MS/MS analysis; assay type: ADME, organism-based; conditions: in vivo
[10] = Suppression of MEN1 gene transcription in human MV4-11 cells assessed as protein synthesis by measuring fold change at 10 uM incubated for 48 hrs relative to control; assay type: functional
[11] = Half life in female ICR mouse at 5 mg/kg, ip by LC-MS/MS analysis; assay type: ADME, organism-based; conditions: in vivo
[12] = AUClast in female ICR mouse at 5 mg/kg, ip by LC-MS/MS analysis; assay type: ADME, organism-based; conditions: in vivo
[13] = Observed AUCinfinity in female ICR mouse at 5 mg/kg, ip by LC-MS/MS analysis; assay type: ADME, organism-based; conditions: in vivo
MV4-11 [14] = assay: Antitumor activity against human MV4-11 cells xenografted in ip treated nu/nu mouse model assessed as tumor growth inhibition measured upto 15 days; assay type: functional, organism-based; conditions: dose 10-20 mg/kg, time <= 15.0 day
MV4-11 [15] = assay: Suppression of MEN1 gene transcription in human MV4-11 cells incubated for 48 hrs by relative gene expression assay; assay type: functional, cell-based
RS4-11 = assay: Antiproliferative activity against human RS4;11 cells harboring MLL-AF4 assessed as cell growth inhibition incubated for 7 days by MTS assay; assay type: functional, cell-based; conditions: RS4-11, 168 h
REH [16] = assay: Antiproliferative activity against human REH cells assessed as cell growth inhibition incubated for 7 days by MTS assay; assay type: functional, cell-based; conditions: 168 h
MV4-11 [17] = assay: Antiproliferative activity against human MV4-11 cells assessed as reduction in cell viability preincubated for 7 days and followed by compound washout and measured on day 14 after compound readdition; assay type: functional, cell-based; conditions: time 21.0 day
MV4-11 [18] = assay: Antiproliferative activity against human MV4-11 cells assessed as reduction in cell viability at 100 nM preincubated for 7 days and followed by compound washout and measured on day 14 after compound readdition; assay type: functional, cell-based; conditions: time 21.0 day
MV4-11 [19] = assay: Antitumor activity against human MV4-11 cells xenografted in nu/nu mouse model assessed as tumor growth rate at 20 mg/kg, ip bid for 15 days measured twice a week during compound dosing by caliper method relative to control; assay type: functional; conditions: time 15 day
MOLM-13 = assay: Antiproliferative activity against human MOLM-13 cells harboring MLL-AF9 assessed as cell growth inhibition incubated for 7 days by MTS assay; assay type: functional, cell-based; conditions: MOLM-13, 168 h
MV4-11 [20] = assay: Antitumor activity against human MV4-11 cells xenografted in nu/nu mouse model assessed as tumor growth rate at 10 mg/kg, ip bid for 15 days measured twice a week during compound dosing by caliper method relative to control; assay type: functional; conditions: time 15 day
[21] = Suppression of MEN1 gene transcription in human MV4-11 cells assessed as protein synthesis by measuring fold change at 10 uM incubated for 48 hrs in presence of 50 ug/ml cycloheximide relative to control; assay type: functional
[22] = Suppression of MEN1 gene transcription in human MV4-11 cells assessed as protein synthesis by measuring fold change at 10 uM incubated for 48 hrs in presence of 20 nM carfilzomib relative to control; assay type: functional
MOLM-14 = assay: Antiproliferative activity against human MOLM-14 cells harboring MLL-AF9 assessed as cell growth inhibition incubated for 7 days by MTS assay; assay type: functional, cell-based; conditions: MOLM-14, 168 h
MV4-11 [23] = assay: Antiproliferative activity against human MV4-11 cells assessed as reduction in cell viability at 80 nM preincubated for 7 days and followed by compound washout and measured on day 14 after compound readdition relative to control; assay type: functional; conditions: time 21 day
[24] = Suppression of MEN1 gene transcription in human MV4-11 cells assessed as protein synthesis by measuring fold change at 10 uM incubated for 24 hrs in presence of 50 ug/ml cycloheximide relative to control; assay type: functional
[25] = Antiproliferative activity against human MINO cells assessed as cell growth inhibition incubated for 7 days by MTS assay; assay type: functional, cell-based; conditions: 168 h
MV4-11 [26] = assay: Downregulation of MEIS1 expression level in human MV4-11 cells at 10 uM incubated for 48 hrs by qRT-PCR analysis; assay type: functional, cell-based
[27] = Suppression of MEN1 gene transcription in human MV4-11 cells assessed as protein synthesis by measuring fold change at 10 uM incubated for 36 hrs in presence of 50 ug/ml cycloheximide relative to control; assay type: functional
[28] = Solubility of compound in water by HPLC analysis; assay type: physicochemical
[29] = Observed MRTinfinity in female ICR mouse at 5 mg/kg, ip by LC-MS/MS analysis; assay type: ADME, organism-based; conditions: in vivo
MV4-11 [30] = assay: Antiproliferative activity against human MV4-11 cells harboring MLL-AF4 assessed as cell growth inhibition incubated for 7 days by MTS assay; assay type: functional, cell-based; conditions: MV4-11, 168 h
MV4-11 [31] = assay: Inhibition of menin protein expression in human MV-4-11 cells measured after 48 hrs incubation by Western blot analysis; assay type: functional, cell-based; conditions: dose 1-37 µM
REH [32] = assay: Downregulation of HOXA9 expression level in human REH cells at 10 uM incubated for 48 hrs by qRT-PCR analysis; assay type: functional, cell-based
[33] = test system: Acute myeloid leukemic cell; assay: Induction of cell differentiation in human acute myeloid leukemia patient-derived cells assessed as increase in CD11b at 150 nM incubated for 7 days by cytoFLEX flow cytometric analysis; assay type: functional, cell-based; conditions: time 7.0 day
MV4-11 [34] = assay: Antiproliferative activity against human MV4-11 cells assessed as reduction in cell viability at 50 nM incubated for 7 days and measured after compound washout relative to control; assay type: functional; conditions: time 7 day
[35] = Suppression of MEN1 gene transcription in human MV4-11 cells assessed as protein synthesis by measuring fold change at 10 uM incubated for 12 hrs in presence of 50 ug/ml cycloheximide relative to control; assay type: functional
REH [36] = assay: Downregulation of MEIS1 expression level in human REH cells at 10 uM incubated for 48 hrs by qRT-PCR analysis; assay type: functional, cell-based
[37] = Cytotoxicity against human PBMC cells assessed as cell viability incubated for 7 days by MTS assay; assay type: toxicity, cell-based
[38] = Tmax in female ICR mouse at 5 mg/kg, ip by LC-MS/MS analysis; assay type: ADME, organism-based; conditions: in vivo
MV4-11 [39] = assay: Downregulation of HOXA9 expression level in human MV4-11 cells at 10 uM incubated for 48 hrs by qRT-PCR analysis; assay type: functional, cell-based
[40] = Toxicity in nu/nu mouse model assessed as body weight loss at 10 to 20 mg/kg, ip bid for 15 days measured twice a week during compound dosing; assay type: organism-based; conditions: in vivo, 360 h, dose 10-20 mg/kg, time 15 day

Chain of Menin/Histone-lysine N-methyltransferase MLL (O00255 whole entry): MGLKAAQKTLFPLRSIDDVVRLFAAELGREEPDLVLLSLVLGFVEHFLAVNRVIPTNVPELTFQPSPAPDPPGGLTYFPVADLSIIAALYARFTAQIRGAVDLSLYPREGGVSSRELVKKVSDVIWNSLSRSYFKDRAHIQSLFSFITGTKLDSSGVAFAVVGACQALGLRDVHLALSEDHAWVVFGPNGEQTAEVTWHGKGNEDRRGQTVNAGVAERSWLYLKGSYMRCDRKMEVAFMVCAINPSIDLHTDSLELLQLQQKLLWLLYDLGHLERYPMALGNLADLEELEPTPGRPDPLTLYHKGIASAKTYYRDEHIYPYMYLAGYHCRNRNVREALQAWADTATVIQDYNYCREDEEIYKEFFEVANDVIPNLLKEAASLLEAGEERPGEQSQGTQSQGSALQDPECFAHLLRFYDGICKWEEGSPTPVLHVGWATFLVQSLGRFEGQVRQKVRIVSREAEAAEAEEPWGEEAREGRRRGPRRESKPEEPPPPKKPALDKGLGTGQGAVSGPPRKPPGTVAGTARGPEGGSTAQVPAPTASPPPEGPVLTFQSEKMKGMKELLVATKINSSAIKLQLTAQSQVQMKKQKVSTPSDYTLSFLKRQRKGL
Chain of Menin/Histone-lysine N-methyltransferase MLL (Q03164 1-2718 partner limits assumed): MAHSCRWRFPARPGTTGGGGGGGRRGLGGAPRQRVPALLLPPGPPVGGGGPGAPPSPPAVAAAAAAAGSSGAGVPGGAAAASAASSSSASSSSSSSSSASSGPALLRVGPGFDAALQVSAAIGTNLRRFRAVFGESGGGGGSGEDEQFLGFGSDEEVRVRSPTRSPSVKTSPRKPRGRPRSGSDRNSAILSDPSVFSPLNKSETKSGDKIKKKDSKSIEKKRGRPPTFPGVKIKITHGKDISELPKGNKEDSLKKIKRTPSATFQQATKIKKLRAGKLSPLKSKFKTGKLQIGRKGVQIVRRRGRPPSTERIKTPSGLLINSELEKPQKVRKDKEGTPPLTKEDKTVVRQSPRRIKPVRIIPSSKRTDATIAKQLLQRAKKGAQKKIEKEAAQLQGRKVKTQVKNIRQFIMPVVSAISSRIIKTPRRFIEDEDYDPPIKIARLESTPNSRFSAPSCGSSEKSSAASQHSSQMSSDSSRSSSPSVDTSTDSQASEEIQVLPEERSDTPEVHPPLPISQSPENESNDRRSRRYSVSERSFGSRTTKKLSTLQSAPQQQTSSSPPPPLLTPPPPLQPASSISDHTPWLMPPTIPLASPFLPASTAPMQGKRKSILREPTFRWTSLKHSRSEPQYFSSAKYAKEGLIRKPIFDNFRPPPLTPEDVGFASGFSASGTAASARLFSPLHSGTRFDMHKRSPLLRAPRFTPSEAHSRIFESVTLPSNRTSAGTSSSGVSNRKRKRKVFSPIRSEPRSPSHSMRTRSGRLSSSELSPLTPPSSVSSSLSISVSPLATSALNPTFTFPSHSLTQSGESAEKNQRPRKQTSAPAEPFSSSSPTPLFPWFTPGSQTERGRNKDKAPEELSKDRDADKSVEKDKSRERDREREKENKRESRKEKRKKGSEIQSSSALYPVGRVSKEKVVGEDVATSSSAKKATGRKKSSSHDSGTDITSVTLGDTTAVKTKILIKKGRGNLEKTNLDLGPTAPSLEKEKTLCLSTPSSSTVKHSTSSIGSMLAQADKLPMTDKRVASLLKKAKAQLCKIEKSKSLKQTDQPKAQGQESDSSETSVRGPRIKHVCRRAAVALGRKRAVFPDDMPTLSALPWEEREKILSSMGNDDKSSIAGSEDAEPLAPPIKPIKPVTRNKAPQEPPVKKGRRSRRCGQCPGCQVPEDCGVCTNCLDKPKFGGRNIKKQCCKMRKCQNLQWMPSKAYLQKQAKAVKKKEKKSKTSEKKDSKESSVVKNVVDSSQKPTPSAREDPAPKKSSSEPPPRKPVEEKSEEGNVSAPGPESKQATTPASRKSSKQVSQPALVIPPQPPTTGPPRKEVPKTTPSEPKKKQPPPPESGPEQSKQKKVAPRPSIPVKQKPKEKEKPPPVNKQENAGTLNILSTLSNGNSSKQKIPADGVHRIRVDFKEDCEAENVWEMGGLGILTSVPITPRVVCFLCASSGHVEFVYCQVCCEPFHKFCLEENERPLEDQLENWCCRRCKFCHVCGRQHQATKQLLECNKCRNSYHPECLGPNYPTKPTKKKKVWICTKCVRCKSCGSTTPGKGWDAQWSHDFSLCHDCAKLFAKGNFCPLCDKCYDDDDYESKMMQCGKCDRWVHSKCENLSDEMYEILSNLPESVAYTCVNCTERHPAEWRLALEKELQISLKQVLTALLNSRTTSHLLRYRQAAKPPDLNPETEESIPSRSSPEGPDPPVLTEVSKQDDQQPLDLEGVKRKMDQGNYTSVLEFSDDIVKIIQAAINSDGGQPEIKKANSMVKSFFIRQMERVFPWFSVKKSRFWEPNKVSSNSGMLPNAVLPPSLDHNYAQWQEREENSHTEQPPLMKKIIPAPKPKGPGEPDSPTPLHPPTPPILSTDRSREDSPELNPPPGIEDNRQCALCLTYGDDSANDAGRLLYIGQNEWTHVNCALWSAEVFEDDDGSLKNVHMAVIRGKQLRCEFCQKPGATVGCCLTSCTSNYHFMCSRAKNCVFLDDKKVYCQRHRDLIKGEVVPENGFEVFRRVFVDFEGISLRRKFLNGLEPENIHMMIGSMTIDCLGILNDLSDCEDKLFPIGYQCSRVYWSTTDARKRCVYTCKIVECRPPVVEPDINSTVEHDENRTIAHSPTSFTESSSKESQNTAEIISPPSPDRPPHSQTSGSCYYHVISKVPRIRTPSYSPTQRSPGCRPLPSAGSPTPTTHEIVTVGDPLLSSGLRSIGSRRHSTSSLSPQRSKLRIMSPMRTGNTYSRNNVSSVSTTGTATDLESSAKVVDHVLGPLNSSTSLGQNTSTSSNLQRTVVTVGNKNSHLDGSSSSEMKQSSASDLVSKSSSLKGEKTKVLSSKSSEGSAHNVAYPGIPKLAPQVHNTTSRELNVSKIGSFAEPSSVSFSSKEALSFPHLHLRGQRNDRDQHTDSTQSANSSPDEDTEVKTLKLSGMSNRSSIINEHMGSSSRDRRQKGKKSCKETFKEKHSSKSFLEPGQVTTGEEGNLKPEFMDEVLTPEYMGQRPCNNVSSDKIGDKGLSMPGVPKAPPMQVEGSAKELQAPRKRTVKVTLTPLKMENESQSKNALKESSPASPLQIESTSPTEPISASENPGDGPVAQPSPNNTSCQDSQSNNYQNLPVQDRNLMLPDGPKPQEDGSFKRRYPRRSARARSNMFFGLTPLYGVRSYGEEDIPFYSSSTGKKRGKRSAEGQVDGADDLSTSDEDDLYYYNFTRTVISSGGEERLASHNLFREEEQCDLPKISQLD
Chain of Menin/Histone-lysine N-methyltransferase MLL (Q03164 2719-3969 partner limits assumed): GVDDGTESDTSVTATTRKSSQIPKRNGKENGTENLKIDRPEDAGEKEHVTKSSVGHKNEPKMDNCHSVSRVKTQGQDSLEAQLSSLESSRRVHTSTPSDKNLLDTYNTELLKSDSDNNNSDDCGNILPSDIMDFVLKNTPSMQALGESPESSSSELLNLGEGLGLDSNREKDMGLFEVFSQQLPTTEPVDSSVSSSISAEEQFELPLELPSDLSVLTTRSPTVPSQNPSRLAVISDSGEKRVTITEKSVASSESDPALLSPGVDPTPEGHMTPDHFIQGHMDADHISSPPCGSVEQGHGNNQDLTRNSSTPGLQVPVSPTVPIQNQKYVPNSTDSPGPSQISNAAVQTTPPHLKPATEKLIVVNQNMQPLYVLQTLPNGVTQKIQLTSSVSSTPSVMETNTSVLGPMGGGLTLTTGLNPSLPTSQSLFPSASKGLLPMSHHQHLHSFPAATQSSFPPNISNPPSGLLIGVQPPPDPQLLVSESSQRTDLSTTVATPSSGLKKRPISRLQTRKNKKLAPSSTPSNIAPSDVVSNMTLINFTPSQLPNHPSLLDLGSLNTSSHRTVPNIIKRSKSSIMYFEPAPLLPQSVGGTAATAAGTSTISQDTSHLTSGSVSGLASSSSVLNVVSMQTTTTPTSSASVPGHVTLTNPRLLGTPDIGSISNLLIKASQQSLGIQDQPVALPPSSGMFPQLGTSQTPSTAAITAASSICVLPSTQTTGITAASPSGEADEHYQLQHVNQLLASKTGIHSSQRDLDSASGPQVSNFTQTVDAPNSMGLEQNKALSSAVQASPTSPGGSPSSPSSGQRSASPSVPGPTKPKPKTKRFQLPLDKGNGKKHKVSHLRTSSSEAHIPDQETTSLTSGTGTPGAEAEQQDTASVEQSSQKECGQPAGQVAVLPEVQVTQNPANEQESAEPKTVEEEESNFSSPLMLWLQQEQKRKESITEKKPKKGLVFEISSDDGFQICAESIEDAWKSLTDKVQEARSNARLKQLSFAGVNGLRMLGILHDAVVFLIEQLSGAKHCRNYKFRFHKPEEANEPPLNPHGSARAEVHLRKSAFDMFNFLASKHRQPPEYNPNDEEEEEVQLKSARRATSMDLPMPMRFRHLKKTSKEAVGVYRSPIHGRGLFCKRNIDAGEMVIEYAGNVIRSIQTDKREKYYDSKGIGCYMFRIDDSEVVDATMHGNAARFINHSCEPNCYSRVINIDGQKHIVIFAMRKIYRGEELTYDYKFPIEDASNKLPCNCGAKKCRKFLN

pIC50 (MV4-11 [1]): 6.85 | pIC50 [3]: 7.74
Structure (SMILES): CCN(C(=O)c1cc(F)ccc1Nc1cncnc1N1CCN(C(C)C2CN(c3ccc(S(=O)(=O)C4CN(C(=O)/C=C/CN(C)C)C4)cc3)C2)CC1)C(C)C (centres undefined)
pIC50 (REH [2]): 5.10

pIC50 (MV4-11 [1]): 6.66 | pIC50 [3]: 7.47
Structure (SMILES): C=CC(=O)N1CC(S(=O)(=O)c2ccc(N3CC(CN4CCN(c5ncncc5Nc5ccc(F)cc5C(=O)N(C(C)C)C(C)C)CC4)C3)cc2)C1
pIC50 (REH [2]): 5.32

pIC50 (MV4-11 [1]): 5.65 | pIC50 [3]: 7.21
Structure (SMILES): CCC(=O)N[C@H]1CCN(S(=O)(=O)c2ccc(N3CC(CN4CCN(c5ncncc5Nc5ccc(F)cc5C(=O)N(CC)C(C)C)CC4)C3)cc2)C1
pIC50 (REH [2]): < 4.70

Structure (SMILES): C[C@@H]1C[C@@H]([C@H](O)CC2CC(=O)NC(=O)C2)C(=O)[C@@H](C)C1 [CYCLOHEXIMIDE]
fold change (FC) [4]: 0.55 | fold change (FC) [5]: 0.007 | fold change (FC) [6]: 0.007 | fold change (FC) [7]: 0.41

pIC50 (MV4-11 [1]): 5.90 | pIC50 [3]: 7.50
Structure (SMILES): C=CC(=O)N[C@@H]1CCN(S(=O)(=O)c2ccc(N3CC(CN4CCN(c5ncncc5Nc5ccc(F)cc5C(=O)N(CC)C(C)C)CC4)C3)cc2)C1
pIC50 (REH [2]): < 4.70

pIC50 (MV4-11 [1]): 7.40 | pIC50 [3]: 7.84
Structure (SMILES): CCN(C(=O)c1cc(F)ccc1Oc1cncnc1N1CCN(CC2CN(c3ccc(S(=O)(=O)C4CN(C(=O)/C=C/CN(C)C)C4)cc3)C2)CC1)C(C)C
pIC50 (REH [2]): 4.94

pIC50 (HL-60): < 5.52 | pIC50 (MV4-11 [1]): 7.52 | Cmax [9]: 980 ng/mL | half-life [11]: 1.59 h | AUC(0-t) [12]: 1150 ng·h/mL | AUC(0-inf) [13]: 1230 ng·h/mL | pIC50 (RS4-11): 6.57 | pIC50 (MOLM-13): 6.66 | pIC50 [3]: 7.74 | pIC50 (MOLM-14): 6.99 | solubility [28]: 1230 µg/mL (≈ 1590 µM) | MRT inf [29]: 1.85 h | pIC50 (MV4-11 [30]): 7.31 | Tmax [38]: 0.25 h
Structure (SMILES): CCN(C(=O)c1cc(F)ccc1Nc1cncnc1N1CCN(CC2CN(c3ccc(S(=O)(=O)C4CN(C(=O)/C=C/CN(C)C)C4)cc3)C2)C(C)C1)C(C)C (centres undefined)
Activity (MV4-11 [8]): inactive | fold change (FC) [10]: 0.08 | Activity (MV4-11 [14]): Dose-dependent-effect | pIC50 (REH [2]): 5.08 | Activity (MV4-11 [15]): Active | pIC50 (REH [16]): < 5.52 | Activity (MV4-11 [17]): Dose-dependent-effect | Activity (MV4-11 [18]): Active | Activity (MV4-11 [19]): 35.85% | Activity (MV4-11 [20]): 55.64% | fold change (FC) [21]: 0.25 | fold change (FC) [22]: 0.14 | Activity (MV4-11 [23]): 100% | fold change (FC) [24]: 0.31 | pIC50 [25]: < 5.52 | Activity (MV4-11 [26]): Active | fold change (FC) [27]: 0.21 | Activity (MV4-11 [31]): Dose-dependent-effect; Significantly Greater Inhibition At 10 Um Than That Of Sndx-5613 | Activity (REH [32]): Active; Little Impact Observed | Activity [33]: Active | Activity (MV4-11 [34]): 100% | fold change (FC) [35]: 0.69 | Activity (REH [36]): Active; Little Impact Observed | IC50 at 7 days [37]: > 3000 nM | Activity (MV4-11 [39]): Active | Activity [40]: Non-toxic
